US20260275280A1, “DIRECTED DIFFERENTIATION PROTOCOLS TO DERIVE BONE FIDE SPINAL SENSORY INTERNEURONS” (THE REGENTS OF THE UNIVERSITY OF CALIFORNIA, priority 2022, published 2026)
“Also recorded” adds a separate entry of the source.

Key:
mESCs = assay: NMP induction from mESCs with bFGF and CHIR (Sox2/T expression); type: cell-based, mouse; conditions: day 2 (48 hr bFGF alone) / day 3 (further 24 hr bFGF and CHIR)
Experimental: The mouse ESC line, MM13, was routinely maintained in ES cell media (DMEM+20% FBS) with 100u/ml of mouse leukocyte inducing factor (LIF). […] To prepare cells for the differentiation, ESC colonies were dissociated with 0.25% trypsin and plated on gelatin coated plates at 1:10 dilution to reduce MEF transfer. Cells cultured on gelatin coated plates and allowed to proliferate for 1-2 days. To initiate differentiation, cells were plated on 0.1% gelatin coated 24-well CellBIND dishes (Corning) at 20,000 cells/ml density in 0.5 ml/well N2/B27 medium that contains 10 ng/ml basic fibroblast growth factor (bFGF). The N2/B27 medium contains 1:1 portions of Advanced Dulbecco's modified Eagle Media (DMEM) F12 (Hyclone) and Neurobasal media (Thermo Fisher Scientific) supplemented with 0.5×N2, 1×B27 supplement (with Vitamin A), 2 mM L-glutamine, 0.1 mM 2-mercaptoethanol (ME), and 1% BSA. On day 1, small colonies of cells can be observed attached to the bottom of the wells. On day 2, cells were supplemented with 10 ng/ml bFGF and 5 μM CHIR99021 for 24 hours to induce a neuromesodermal identity (Gouti et al., 2014). On day 3, media was changed as follows: for protocol 1, cells were exposed to 100 nM RA for 48 hrs. […] At the end of the differentiation, the cultures were fixed for immunohistochemical analysis or lysed to obtain RNA for RNA-Seq or quantitative reverse transcriptase PCR analysis. […]

CHIR-expanded EBs = assay: Differentiation of CHIR-expanded EBs on Matrigel (IHC, RT-qPCR at day 10); type: cell-based, mouse; conditions: DAPT added
Experimental: Embryoid body (EB) differentiation: To induce differentiation, EBs were dissociated into smaller clumps by a 5-7-minute treatment with cold 0.25% Trypsin (Gibco), followed by trituration. Trypsin was neutralized with 1:1 addition of Trypsin inhibitor (Sigma-Aldrich) and cells were pelleted by centrifugation at 1000RPM. Cell pellets were resuspended in N2/B27 medium (without growth factors) and plated onto a Matrigel precoated plate. In our experience, the single cell suspension of 100-150 EBs provided enough cells to seed one 24-well plate. […] At the end of 10 days, multiple neural processes can be visualized by phase contrast microscopy and cultures were either fixed with 4% PFA for immunohistochemistry or lysed to extract RNA in RLT buffer (Qiagen). […] CHIR withdrawal), or DAPT, a pro-differentiation agent (Crawford and Roelink, 2007) (FIG. 7J). […] This strategy was successful at restoring almost all dI identities in cultures taken from EBs both at the earliest passage and at the latest passage assessed (passage 7;

hESCs = conditions: added to the cell dissociation media (Watanabe et al., 2007, Pettinato et al., 2015); cited from earlier work
Wnt/β-catenin signaling = assay: Inhibition of Wnt/β-catenin signaling during dI differentiation (IHC and RT-qPCR at day 9); type: cell-based, mouse
Experimental: The mouse ESC line, MM13, was routinely maintained in ES cell media (DMEM+20% FBS) with 100u/ml of mouse leukocyte inducing factor (LIF). […] To prepare cells for the differentiation, ESC colonies were dissociated with 0.25% trypsin and plated on gelatin coated plates at 1:10 dilution to reduce MEF transfer. Cells cultured on gelatin coated plates and allowed to proliferate for 1-2 days. To initiate differentiation, cells were plated on 0.1% gelatin coated 24-well CellBIND dishes (Corning) at 20,000 cells/ml density in 0.5 ml/well N2/B27 medium that contains 10 ng/ml basic fibroblast growth factor (bFGF). The N2/B27 medium contains 1:1 portions of Advanced Dulbecco's modified Eagle Media (DMEM) F12 (Hyclone) and Neurobasal media (Thermo Fisher Scientific) supplemented with 0.5×N2, 1×B27 supplement (with Vitamin A), 2 mM L-glutamine, 0.1 mM 2-mercaptoethanol (ME), and 1% BSA. On day 1, small colonies of cells can be observed attached to the bottom of the wells. On day 2, cells were supplemented with 10 ng/ml bFGF and 5 μM CHIR99021 for 24 hours to induce a neuromesodermal identity (Gouti et al., 2014). On day 3, media was changed as follows: for protocol 1, cells were exposed to 100 nM RA for 48 hrs. For protocol 2, 10 ng/ml human recombinant BMP4 (Thermo Fisher Scientific) was added concomitantly with 100 nM RA (RA+BMP4) for 48 hrs. For protocol 3, cells were exposed to 100 nM RA for 24 hrs, followed by a pulse of RA+BMP4 for another 24 hours. To induce terminal differentiation in all three conditions, the medium containing growth factors was replaced with basic N2/B27 medium at day 5, and cell allowed to differentiate to day 9. At the end of the differentiation, the cultures were fixed for immunohistochemical analysis or lysed to obtain RNA for RNA-Seq or quantitative reverse transcriptase PCR analysis.
Immunohistochemistry: For 2d differentiations, adherent cultures were first washed with 1×PBS and fixed with fresh cold 4% PFA for 10 minutes in the well. Following fixation, cultures were washed twice with 1×PBS to remove any remaining PFA. Cells were blocked with 1×PBS with 1% heat inactivated horse serum for 1 hour and primary antibodies are added in the blocking solution for an overnight incubation at 4C. Following washes, species appropriate secondary antibodies (Jackson Immuno Research Laboratories) were added in 1× PBT (PBS+0.1% […]) for 1 hr. The cultures were then washed with 1× PBT to remove traces of secondary antibodies and counterstained with DAPI to stain nuclei. Plates were then imaged on Zeiss LSM800 inverted confocal microscope at 10× magnification.
(§1) Quantitative (a) RT-PCR analysis: RNA was isolated with RNeasy Mini Kit (Qiagen, cat no. 74104), and converted to cDNA using Superscript IV First Strand Synthesis kit (Thermo Fisher Scientific). qRT-PCR was performed using SYBR Green PCR Master Mix (Applied Biosystems) on Roche 480 Lightcycler (Roche). The relative fold expression was calculated using 2-AACt method of comparing the expression of the target gene with that of the housekeeping gene glyceraldehyde 3-phosphate dehydrogenase (Gapdh). All experiments were repeated at least 2-3 times (technical replicates) from at least two independent differentiations (biological replicates), and data is represented as mean±SEM.
To assess the role of canonical Wnt signaling in dI fate specification, we added endo-IWR1 (IWR1e), a small molecule inhibitor which blocks p-catenin function (Chen et al., 2009) to dPs from day 4-6 (FIG. 5A). By day 9, the RA+BMP4 condition robustly induces dlis-dI3s (FIG. 5F-51, 5N-5P).

Wnt-signaling genes = assay: RT-qPCR of selected Wnt genes at day 5 (RA±BMP4, Noggin); type: cell-based, mouse
Experimental: as §1
Additionally, we also found enriched GO terms related to Wnt signaling across three functional categories (FIG. 4C). […] (FIGS. 4D, 4E, 12B). Selected Wnt-signaling genes were further assessed in a qPCR analysis of day 5 NMPs to validate whether they are BMP4-responsive.

[1] = system: mESCs-derived NMPs / NPCs; assay: Bulk RNA-Seq differential expression and qRT-PCR after RA or RA+BMP4 treatment; type: cell-based, mouse
Experimental: Bulk-RNA sequencing and data processing: Total cell lysate was obtained in buffer RLT (Qiagen) at different time points from three independent differentiations (biological replicates) conducted parallelly. RNA extraction was performed using RNeasy mini kit (Qiagen) and the quality was determined using Agilent Technologies 2100 Bioanalyzer and only samples with a RIN score >8.0 were sequenced. Stranded libraries were constructed using Universal plus mRNA sequencing kit (NuGEN) and sequenced onto 2 lanes of NovaseqS1 to generate 30 million reads/sample. Obtained reads were aligned to the latest mouse reference genome (mm10) using the STAR spliced read aligner. Pearson correlation and principal component analysis (PCA) was performed to determine the similarities among the samples and replicates. Differentially expressed genes were identified using DESeq and EdgeR package on R platform. The candidate genes were selected using cutoff false discovery rate (FDR <0.05) and log fold change (>2). Differentially expressed gene lists were further subjected to Enrichr, Metascape (Zhou et al., 2019) and DAVID functional annotation tools to identify enriched gene ontology (GO) categories.
as §1
We took advantage of the directed differentiation protocols to investigate the unresolved mechanisms by which RA and BMP direct dI fate specification. To further validate the use of a stem cell model, we first assessed the genetic basis of the fate decisions mediated by RA signaling. During the 24 hr pulse of RA at day 3, Pax3 levels gradually increase, while T expression concomitantly declines (FIG. 12A). […] To identify the transcriptional changes occurring during this first commitment step, we performed bulk RNA-Seq at day 3 (NMP state), day 3.25 (early transcriptional response to RA) and day 4 (dP state1) (FIG. 11B).
We hypothesized that the addition of BMP4 to NPCs in dP state1, directs them to a more dorsal dP state, i.e. dP state2 (FIG. 11A). To define the transcriptional changes occurring after BMP4 addition, we performed bulk RNA-Seq at day 4 (dP state1), day 4.25 (early transcriptional response to RA+BMP4) and at day 5 (dP state2) (FIG. 4A). […] 78 genes, out of 411, were common between both time points (FIGS. 4B, 13B). Focusing on these common genes, we identified enriched functional processes using GO analyses. The GO terms included the BMP signaling pathway (FIG. 4C, Table 3), confirming that the analysis identified BMP responsive genes.

[2] = inhibitor added to RA+BMP4 (protocol 3) from day 4, 48 hours, day 9

bFGF: human basic fibroblast growth factor
Expression of Sox2 and T (mESCs): upregulate Sox2 but not T

C[C@H](NC(=O)Cc1cc(F)cc(F)c1)C(=O)N[C@H](C(=O)OC(C)(C)C)c1ccccc1 [DAPT]
Tuj1+ neurites (CHIR-expanded EBs; day 10, IHC): increased sprouting of Tuj^+ neurites; also recorded: modest effect increasing the number of Tuj1+neurites | NeuN and Tubb3 expression compared to DMSO (CHIR-expanded EBs; day 10, RT-qPCR): did not significantly augment NeuN and Tubb3 expression

C[C@@H](N)[C@H]1CC[C@H](C(=O)Nc2ccncc2)CC1 [Y-27632]
apoptosis upon dissociation and EB formation (hESCs): significantly inhibit apoptosis and enhance the EB formation

Oc1nc(-c2ccc(C(F)(F)F)cc2)nc2c1CSCC2 [XAV939]
dI1 and dI2 differentiation (Wnt/β-catenin signaling; [2]): most strongly suppresses the differentiation of the BMP4-dependent dI1/dI2s | dI3 differentiation (Wnt/β-catenin signaling; [2]): more modest effect on dI3s | dI4, dI5, dI6 fates (Wnt/β-catenin signaling; [2]): increase in the expression of dI4-dI6 specific genes | dP markers Pax3, Pax7, Olig3 (Wnt/β-catenin signaling; inhibitor added to RA+BMP4 condition): prevents both the suppression of Pax7+dPs and induction of Olig3+dPs

B1: BMP4: human recombinant bone morphogenetic protein 4 (protein, UniProt P12644 293-408, looked up)
Bone morphogenetic protein 4: SPKHHSQRARKKNKNCRRHSLYVDFSDVGWNDWIVAPPGYQAFYCHGDCPFPLADHLNSTNHAIVQTLVNSVNSSIPKACCVPTELSAISMLYLDEYDKVVLKNYQEMVVEGCGCR
expression of selected Wnt-signaling genes (Wnt-signaling genes; day 5, addition of BMP4 compared to RA alone): expression of all genes tested significantly increased | upregulated genes common between both time points ([1]; 6 hrs and 24 hrs of BMP4+RA treatment): 78 genes | genes upregulated ([1]; 6 hrs of BMP4 addition (day 4.25) vs day 4): 106 genes | genes upregulated ([1]; 24 hrs of BMP4 exposure (day 5) vs day 4): 305 genes

B2: Noggin: a BMP signaling inhibitor (protein, UniProt Q13253 28-232, looked up)
Noggin: QHYLHIRPAPSDNLPLVDLIEHPDPIFDPKEKDLNETLLRSLLGGHYDPGFMATSPPEDRPGGGGGAAGGAEDLAELDQLLRQRPSGAMPSEIKGLEFSEGLAQGKKQRLSKKLRRKLQMWLWSQTFCPVLYAWNDLGSRFWPRYVKVGSCFSKRSCSVPEGMVCKPSKSVHLTVLRWRCQRRGGQRCGWIPIQYPIISECKCSC
upregulation of Wnt expression (Wnt-signaling genes; Noggin concomitantly added with BMP4 on day 4): upregulation of Wnt expression was suppressed
